From US11505570B2, “Organic acid salt of nicotinamide riboside, composition including organic acid salt, and preparation methods of organic acid salt and composition” (SHENZHEN DIECKMANN TECH CO., LTD, priority 2020, dated 2022) come the findings set out here.

The nature of the data set: Stability test: storage in nitrogen-filled sealed bottles, purity test by HPLC every month. The data set is classed as physicochemical. The conditions noted are these: for purity by HPLC, Time (month) 1: 1 month; for purity by HPLC, Time (month) 2: 2 months; for purity by HPLC, Time (month) 3: 3 months; for purity by HPLC, Time (month) 4: 4 months; for purity by HPLC, Time (month) 5: 5 months; for purity by HPLC, Time (month) 6: 6 months; for Decomposition rate: over 6 months; for purity by HPLC, Time (month) 0: initial sample (0 month); for stability, molar ratio (NR to organic acid) 1:2 compared with 1:1: in words, comparison with the corresponding 1:1 product. As to the method:
I. Preparation of samples
1. The products of Examples 1 to 4, Examples 10 to 13, and the comparative example were each dispensed into 13 bottles, each of 50 mg; and the bottles were filled with nitrogen and sealed. One of the bottles (initial sample) was first tested, and the remaining 12 bottles were divided into two groups (each with 6 bottles) and stored. The bottles in each group were numbered 1 to 6 according to a test sequence. The two groups of bottles were stored at 2° C. to 8° C. and −20° C., respectively; and one sample was tested every month.
2. The products of Examples 6 to 9 and Example 14 were each dispensed into 7 bottles, each of 50 mg; and the bottles were filled with nitrogen and sealed. One of the bottles (initial sample) was first tested, and the remaining 6 bottles were numbered 1 to 6 according to a test sequence and then stored at 2° C. to 8° C. One sample was tested every month.
II. Preparation of test sample solutions
One bottle of sample was taken at a time and prepared into a 5 mL or 10 mL solution using a 5 mL or 10 mL volumetric flask, and then the solution was filtered through a membrane to be ready for purity test by HPLC.
Mobile phase: isocratic elution: 5% water (0.1% formic acid)+95% methanol (0.1% formic acid)
Temperature and humidity: 23.0° C. and 54% RH
Sample dissolution: dissolution by methanol
Chromatographic column: ODS-2, 4.6 * 250 mm, 5 μm, and constant pressure: 12 Mpa to 13 Mpa
Running time: ≥15 min IV.

[1] abbreviates: Table 2, stored at 2° C. to 8° C.

For `NC(=O)c1ccc[n+]([C@@H]2O[C@H](CO)[C@@H](O)[C@H]2O)c1.O=C(O)CC(O)(CC(=O)O)C(=O)O.O=C(O)CC(O)(CC(=O)O)C(=O)[O-]` [Example 2, citrate of NR (1:2)], the “stability, molar ratio (NR to organic acid) 1:2 compared with 1:1” value is listed as “higher stability”. Also, where the note is “Table 1, stored at −20° C.”, the “purity by HPLC, Time (month) 1” value is 98.317; the “purity by HPLC, Time (month) 2” value was 98.079; the “purity by HPLC, Time (month) 3” value is listed as 98.168; the “purity by HPLC, Time (month) 4” value was found to be 97.933. Moreover, where the note is “Table 1, stored at −20° C.”, the “purity by HPLC, Time (month) 5” value is listed as 97.806; the “purity by HPLC, Time (month) 6” value was found to be 97.788; the Decomposition rate amounted to 0.69%. Besides, under “Table 1, −20° C.”, the “purity by HPLC, Time (month) 0” value was 98.471. Besides, the “purity by HPLC, Time (month) 0” value (Table 2, 2° C. to 8° C.) is on record as 98.471. Under setting [1], the “purity by HPLC, Time (month) 1” value is on record as 98.492; the “purity by HPLC, Time (month) 2” value is reported as 98.240; the “purity by HPLC, Time (month) 3” value is listed as 98.097; the “purity by HPLC, Time (month) 4” value was found to be 97.626. Under setting [1], the “purity by HPLC, Time (month) 5” value is 97.704; the “purity by HPLC, Time (month) 6” value is 97.498; the Decomposition rate came to 0.99%.
For `NC(=O)c1ccc[n+]([C@@H]2O[C@H](CO)[C@@H](O)[C@H]2O)c1.O=C(O)C[C@H](O)C(=O)O.O=C([O-])C[C@H](O)C(=O)O` [Example 4, malate of NR (1:2)], the “stability, molar ratio (NR to organic acid) 1:2 compared with 1:1” value is recorded as “higher stability”. Under “Table 1, stored at −20° C.”, the “purity by HPLC, Time (month) 1” value was found to be 98.547; the “purity by HPLC, Time (month) 2” value was 98.629; the “purity by HPLC, Time (month) 3” value stood at 98.316; the “purity by HPLC, Time (month) 4” value came out at 98.207. Under “Table 1, stored at −20° C.”, the “purity by HPLC, Time (month) 5” value came out at 98.081; the “purity by HPLC, Time (month) 6” value was determined as 98.100; the Decomposition rate is on record as 0.73%. The “purity by HPLC, Time (month) 0” value (Table 1, −20° C.) stood at 98.818. Besides, the “purity by HPLC, Time (month) 0” value (Table 2, 2° C. to 8° C.) is 98.818. Under setting [1], the “purity by HPLC, Time (month) 1” value came out at 98.424; the “purity by HPLC, Time (month) 2” value was determined as 98.360; the “purity by HPLC, Time (month) 3” value was found to be 98.298; the “purity by HPLC, Time (month) 4” value was 98.239. Also, under setting [1], the “purity by HPLC, Time (month) 5” value amounted to 97.707; the “purity by HPLC, Time (month) 6” value came out at 97.816; the Decomposition rate worked out at 1.01%.
With `NC(=O)c1ccc[n+]([C@@H]2O[C@H](CO)[C@@H](O)[C@H]2O)c1.[Cl-]` [Comparative Example, chlorine salt of NR, reference compound], under “Table 1, stored at −20° C.”, the “purity by HPLC, Time (month) 1” value is given as 98.284; the “purity by HPLC, Time (month) 2” value is 98.087; the “purity by HPLC, Time (month) 3” value was 97.701; the “purity by HPLC, Time (month) 4” value is recorded as 97.449. Under “Table 1, stored at −20° C.”, the “purity by HPLC, Time (month) 5” value is 97.575; the “purity by HPLC, Time (month) 6” value is listed as 97.210; the Decomposition rate turned out to be 1.33%. The “purity by HPLC, Time (month) 0” value (Table 1, −20° C.) was 98.525. Moreover, the “purity by HPLC, Time (month) 0” value (Table 2, 2° C. to 8° C.) is 98.525. Under setting [1], the “purity by HPLC, Time (month) 1” value is 98.171; the “purity by HPLC, Time (month) 2” value worked out at 98.206; the “purity by HPLC, Time (month) 3” value is 97.540; the “purity by HPLC, Time (month) 4” value amounted to 97.612. Under setting [1], the “purity by HPLC, Time (month) 5” value stood at 97.384; the “purity by HPLC, Time (month) 6” value amounted to 97.109; the Decomposition rate is 1.44%.
In the case of `NC(=O)c1ccc[n+]([C@@H]2O[C@H](CO)[C@@H](O)[C@H]2O)c1.O=C([O-])C[C@H](O)C(=O)O` [Example 3, malate of NR (1:1)], where the note is “Table 1, stored at −20° C.”, the “purity by HPLC, Time (month) 1” value turned out to be 98.691; the “purity by HPLC, Time (month) 2” value is on record as 98.310; the “purity by HPLC, Time (month) 3” value came to 98.288; the “purity by HPLC, Time (month) 4” value was 98.076. Where the note is “Table 1, stored at −20° C.”, the “purity by HPLC, Time (month) 5” value is listed as 97.912; the “purity by HPLC, Time (month) 6” value amounted to 97.645; the Decomposition rate came to 0.94%. In addition, the “purity by HPLC, Time (month) 0” value (Table 1, −20° C.) was 98.573. Also, where the note is “Table 2, 2° C. to 8° C.”, the “purity by HPLC, Time (month) 0” value amounted to 98.573. Under setting [1], the “purity by HPLC, Time (month) 1” value worked out at 98.482; the “purity by HPLC, Time (month) 2” value was determined as 98.185; the “purity by HPLC, Time (month) 3” value came out at 98.270; the “purity by HPLC, Time (month) 4” value is given as 97.946. Further, under setting [1], the “purity by HPLC, Time (month) 5” value was found to be 97.592; the “purity by HPLC, Time (month) 6” value worked out at 97.337; the Decomposition rate worked out at 1.25%.
On to `NC(=O)c1ccc[n+]([C@@H]2O[C@H](CO)[C@@H](O)[C@H]2O)c1.O=C(O)CC(O)(CC(=O)O)C(=O)[O-]` [Example 1, citrate of NR (1:1)], for which, under “Table 1, stored at −20° C.”, the “purity by HPLC, Time (month) 1” value is recorded as 98.828; the “purity by HPLC, Time (month) 2” value is reported as 98.450; the “purity by HPLC, Time (month) 3” value came out at 98.190; the “purity by HPLC, Time (month) 4” value came out at 98.252. For the same molecule, where the note is “Table 1, stored at −20° C.”, the “purity by HPLC, Time (month) 5” value came out at 97.978; the “purity by HPLC, Time (month) 6” value is 97.814; the Decomposition rate is recorded as 1.13%. For the same molecule, under “Table 1, −20° C.”, the “purity by HPLC, Time (month) 0” value is on record as 98.930. Under “Table 2, 2° C. to 8° C.”, the “purity by HPLC, Time (month) 0” value stood at 98.930. For the same molecule, under setting [1], the “purity by HPLC, Time (month) 1” value was 98.198; the “purity by HPLC, Time (month) 2” value is given as 98.409; the “purity by HPLC, Time (month) 3” value was found to be 98.171; the “purity by HPLC, Time (month) 4” value was 97.957. Besides, under setting [1], the “purity by HPLC, Time (month) 5” value is recorded as 97.823; the “purity by HPLC, Time (month) 6” value is given as 97.670; the Decomposition rate is listed as 1.27%.
